Conditions in all cases: 48 h
Assay [1] has as its system CU-ACC1. The assay is described as follows: AC50 viability; higher = less potent. The gist of the method:
(§1)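 In 1,536-well plates, 500–1,000 cells/well of three adrenocortical carcinoma cell lines in 5 µL medium received 23 nL of each library compound across 11 concentrations. At 48 h, CellTiter-Glo was incubated for 15 minutes at room temperature and luminescence measured. Per-plate normalisation used vehicle and empty-well controls, and only inhibitory or non-responding curve classes were kept when fitting concentration-response curves for AC50 and area under the curve.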

Assay [2] relates to NCI-H295R. The assay is described as follows: AC50 viability; higher = less potent. The gist of the method:
as §1

For assay [3], the system named is CU-ACC1. The assay is described as follows: area under concentration-response curve (viability) (AUC (a.u.)); higher = less active. The gist of the method: as §1
Assay [4] concerns NCI-H295R. Described as above. The gist of the method: as §1
In a further assay the test system is CU-ACC2. The description is as above. The gist of the method: as §1

Results on 25 molecules are retold here after the supplement of paper PMC10949913.

Molecules are shown by their SMILES.

For the molecule `CCN1C(=O)C\N=C/2N\C=C(/N=C12)C3=C(C)N=C(C=C3)C4=NN=C[NH]4`, the values for the AC50 viability in the assay on CU-ACC1 [1] and in the assay with NCI-H295R [2] were 10.5 µM and 13.2 µM, respectively. Besides, the “area under concentration-response curve” value in the assay with CU-ACC1 [3] came out at 404; in the assay with NCI-H295R [4] it was 458; in the assay with CU-ACC2, 489.
In the same order, the values of `Cc1nc(-c2cn3c(n2)-c2ccc(-c4cnn(C(C)(C)C(N)=O)c4)cc2OCC3)n(C(C)C)n1` are 0.132 µM, 0.934 µM, 414, 458 and 528.
In the same order, the values of `C[C@H](NC(=O)c1sccc1OCc1ccc(Cl)cc1)c1ccccc1` are 10.5 µM, 20.9 µM, 456, 504 and 571.
With `Cc1cnc(NC(=O)Nc2cc(Br)c(C)cc2OC[C@@H]2CNCCO2)cn1`, the values for the AC50 viability in the assay with CU-ACC1 [1] and in the assay on NCI-H295R [2] were 6.61 µM and 4.68 µM, respectively. The figures for the “area under concentration-response curve” value in the assay with CU-ACC1 [3], in the assay on NCI-H295R [4] and in the assay on CU-ACC2 were 486, 524 and 613, respectively.
In the case of `COc1ccc(C[C@@H](C)[C@@H](C)Cc2ccc(OC)c(OC)c2)cc1OC`, the AC50 viability with CU-ACC1 [1] amounted to 4.68 µM; with NCI-H295R [2], 20.9 µM. Further, the figures for the “area under concentration-response curve” value in the assay on CU-ACC1 [3], with NCI-H295R [4] and with CU-ACC2 were 452, 480 and 536, respectively.
In the same order, the values of `NC(=O)c1ccc2[nH]c(-c3ccc(Oc4ccc(Cl)cc4)cc3)nc2c1` are 33.2 µM, 26.3 µM, 450, 507 and 573.
The matching figures for `COC(=O)Nc1ccc(-c2nc(N3CCOCC3)c3cnn(C4CCN(C(=O)OC)CC4)c3n2)cc1`: 2.95 µM, 2.95 µM, 399, 485 and 573.
In the same order, the values of `CC(C)(C)c1[nH]cnc1/C=c1\[nH]c(=O)/c(=C/c2ccccc2)[nH]c1=O` are 18.6 µM, 0.0372 µM, 490, 434 and 398.
For the molecule `C[C@@H](Oc1ccc2[nH]nc(/C=C/c3cnn(CCO)c3)c2c1)c1c(Cl)cncc1Cl`, the AC50 viability in the assay on CU-ACC1 [1] was determined as 16.6 µM; with NCI-H295R [2], 14.8 µM. Besides, the “area under concentration-response curve” value in the assay with CU-ACC1 [3] is 481; with NCI-H295R [4], 473; with CU-ACC2 it was 519.
Regarding `CC1=C(C)C\2=C(S1)[N]3C(=NN=C3[C@H](CC(=O)NC4=CC=C(OCCOCCOCCOCCNC5=CC=CC6=C5C(=O)N(C7CCC(=O)NC7=O)C6=O)C=C4)\N=C2C8=CC=C(Cl)C=C8)C` (stereo not given in full), the AC50 viability was found to be 0.417 µM in the assay with CU-ACC1 [1] and 1.86 µM with NCI-H295R [2]. The “area under concentration-response curve” value in the assay with CU-ACC1 [3] is 443; with NCI-H295R [4], 457; with CU-ACC2, 484.
The matching figures for `CC(C)C[C@H](NC(=O)[C@H](Cc1ccccc1)NC(=O)c1cnccn1)B(O)O`: 0.0372 µM, 0.0263 µM, 290, 345 and 327.
The matching figures for `Fc1ccc(-c2csc3ncnc(NCc4ccc5c(c4)OCO5)c23)cc1`: 3.32 µM, 20.9 µM, 390, 427 and 532.
Take `CC(C)n1nc(-c2ccc3oc(N)nc3c2)c2c(N)ncnc21`: the results for the AC50 viability in the assay with CU-ACC1 [1] and in the assay on NCI-H295R [2] were 0.0372 µM and 0.166 µM, respectively. Moreover, the “area under concentration-response curve” value in the assay on CU-ACC1 [3] was determined as 338; in the assay with NCI-H295R [4], 404; with CU-ACC2, 455.
For the molecule `CC(=O)Nc1ccc(C(=O)Nc2ccccc2N)cc1`, the AC50 viability in the assay with CU-ACC1 [1] came to 7.42 µM; with NCI-H295R [2] it was 18.6 µM. The “area under concentration-response curve” value in the assay with CU-ACC1 [3] stood at 413; with NCI-H295R [4], 445; with CU-ACC2, 408.
With `COc1c(N2C[C@@H]3CCCN[C@@H]3C2)c(F)cc2c(=O)c(C(=O)O)cn(C3CC3)c12.Cl.O`, the AC50 viability is 0.525 µM in the assay on CU-ACC1 [1] and 0.118 µM in the assay on NCI-H295R [2]. In addition, the results for the “area under concentration-response curve” value in the assay on CU-ACC1 [3], in the assay with NCI-H295R [4] and in the assay with CU-ACC2 were 400, 399 and 484, respectively.
With `O=C1Nc2ccc(Cl)cc2[C@@](C#CC2CC2)(C(F)(F)F)O1`, the AC50 viability in the assay on CU-ACC1 [1] and with NCI-H295R [2] was 20.9 µM each time. Besides, the “area under concentration-response curve” value in the assay on CU-ACC1 [3] was 490; in the assay with NCI-H295R [4], 468; in the assay with CU-ACC2 it was 589.
On to `CCCOc1ccc(CCc2nc3cc(-c4c(C)noc4C)ccc3n2CCN2CCOCC2)cc1`, for which the AC50 viability with CU-ACC1 [1] was 14.8 µM; with NCI-H295R [2], 20.9 µM. The “area under concentration-response curve” value worked out at 482 in the assay with CU-ACC1 [3], 479 with NCI-H295R [4] and 567 in the assay on CU-ACC2.
In the same order, the values of `CC(=O)Nc1cc(Oc2ccc3c(nc(Nc4ccc(F)cc4F)n3C)c2C)ccn1` are 18.6 µM, 11.8 µM, 484, 482 and 544.
In the same order, the values of `Cc1nc(N)ncc1-c1nc(N2CCOCC2)c2sc(C(C)(C)O)cc2n1` are 8.33 µM, 4.68 µM, 333, 475 and 488.
Regarding `O=[S+]([O-])(Nc1ccc(-c2cccnc2)c2cccnc12)c1cccc(C(F)(F)F)c1`, the results for the AC50 viability in the assay on CU-ACC1 [1] and in the assay with NCI-H295R [2] were 4.68 µM and 4.17 µM, respectively. Also, the results for the “area under concentration-response curve” value in the assay on CU-ACC1 [3], with NCI-H295R [4] and in the assay on CU-ACC2 were 456, 486 and 595, respectively.
In the same order, the values of `C[C@H]1[C@H](O)O[C@@H]2O[C@@]3(C)CC[C@H]4[C@H](C)CC[C@@H]1[C@@]24OO3` are 6.61 µM, 20.9 µM, 494, 549 and 604.
In the case of `C[S+](=O)([O-])N1CCc2c(-c3cnc(N)nc3)nc(N3CCOCC3)nc21`, the results for the AC50 viability with CU-ACC1 [1] and in the assay with NCI-H295R [2] were 1.18 µM and 0.417 µM, respectively. Moreover, the “area under concentration-response curve” value is 403 in the assay on CU-ACC1 [3], 389 in the assay on NCI-H295R [4] and 345 in the assay on CU-ACC2.
In the same order, the values of `C[C@@H](C(=O)Nc1ccc(Cl)cc1)[C@H]1CC[C@@H](c2ccnc3ccc(F)cc32)CC1` are 29.5 µM, 16.6 µM, 488, 564 and 626.
Regarding `Cc1cc(C)c([S+](=O)([O-])N(CCc2cccc(Br)c2)Cc2ccc(-c3cccc([S+](C)(=O)[O-])c3)cc2)c(C)c1`, the AC50 viability in the assay on CU-ACC1 [1] turned out to be 0.833 µM; in the assay with NCI-H295R [2] it was 7.42 µM. Besides, the “area under concentration-response curve” value in the assay on CU-ACC1 [3] is 412; with NCI-H295R [4], 442; in the assay with CU-ACC2, 417.
The matching figures for `CN1CCN(c2ccc3nc(-c4cc(C(C)(C)C)c(OCCCC(=O)NCCCN=[N+]=[N-])c(C(C)(C)C)c4)[nH]c3c2)CC1`: 7.42 µM, 7.42 µM, 462, 508 and 566.
